According to PubChem BioAssay AID192 (DTP/NCI, 2004):
Where “and” joins values, the source holds several entries; their conditions need not be identical. Identical values can stand only once. Inconclusive results and toxic doses are left out. Numbered stars: 1 amine (or outer) side, 2 acyl side, 3 side chain; on linkers, the order of the positions; unused ones are H or OH. Bridge positions count the residues as written; N and C are the ends. Square brackets hold non-standard residues; d marks the D form. Peptide text beside a SMILES is read from it. I, II: the chains in the order shown. Actinocin(9to1) = Cc1c2oc3c(C)ccc(C(=O)[*:1])c3nc-2c(C(=O)[*:2])c(N)c1=O; NMeV = CN[CH](C(=O)O)C(C)C; Sar = CNCC(=O)O

Test system: BDF1 mice, B16 melanoma ip, median survival T/C
Experiment: NCI In Vivo Anticancer Drug Screen. Data for tumor model B16 Melanoma (intraperitoneal) in B6D2F1 (BDF1) mice
Settings: endpoint: median survival time, higher = longer survival
Outline: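 In this screen, activity was judged from survival or tumor size in treated versus vehicle-treated tumor-bearing mice, reported as T/C.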

[1] = dose: 100.0 mg/kg/injection, schedule: Q01DX009 (ip), vehicle: Klucel (hydroxypropylcellulose) (HPC)

## O=C(CCl)Nc1cc(C(F)(F)F)ccc1Cl
dose: 6.25 mg/kg/injection, schedule: Q01DX009 (ip), vehicle: saline with Tween-80
  T/C: 103 % of control
dose: 12.5 mg/kg/injection, schedule: Q01DX009 (ip), vehicle: saline with Tween-80
  T/C: 95 % of control
dose: 25.0 mg/kg/injection, schedule: Q01DX009 (ip), vehicle: saline with Tween-80
  T/C: 93 % of control

## Cc1c2ccnc(C(N)=O)c2c(C)c2c1[nH]c1ccccc12
dose: 100.0 mg/kg/injection, schedule: Q04DX003 (ip), vehicle: distilled water + Tween-80
  T/C: 100 % of control
dose: 200.0 mg/kg/injection, schedule: Q04DX003 (ip), vehicle: distilled water + Tween-80
  T/C: 114 % of control

## C=C1CCN(c2ccccc2Cl)C1=O
dose: 4.0 mg/kg/injection, schedule: Q01DX009 (ip), vehicle: saline + alcohol
  T/C: 104 % of control
dose: 8.0 mg/kg/injection, schedule: Q01DX009 (ip), vehicle: saline + alcohol
  T/C: 98 % of control
dose: 16.0 mg/kg/injection, schedule: Q01DX009 (ip), vehicle: saline + alcohol
  T/C: 101 % of control
dose: 32.0 mg/kg/injection, schedule: Q01DX009 (ip), vehicle: saline + alcohol
  T/C: 121 % of control

## CCCCCCCCP(=O)(N1CC1C)N1CC1C (stereo not drawn)
dose: 3.12 mg/kg/injection, schedule: Q01DX009 (ip), vehicle: saline
  T/C: 101 % of control
dose: 6.25 mg/kg/injection, schedule: Q01DX009 (ip), vehicle: saline
  T/C: 102 % of control
dose: 12.5 mg/kg/injection, schedule: Q01DX009 (ip), vehicle: saline
  T/C: 97 % of control
dose: 25.0 mg/kg/injection, schedule: Q01DX009 (ip), vehicle: saline
  T/C: 102 % of control

## Clc1ccc(C[P+](c2ccccc2)(c2ccccc2)c2ccccc2)cc1Cl
dose: 3.12 mg/kg/injection, schedule: Q01DX009 (ip), vehicle: Klucel (hydroxypropylcellulose) (HPC)
  T/C: 103 % of control
dose: 6.25 mg/kg/injection, schedule: Q01DX009 (ip), vehicle: Klucel (hydroxypropylcellulose) (HPC)
  T/C: 101 % of control
dose: 12.5 mg/kg/injection, schedule: Q01DX009 (ip), vehicle: Klucel (hydroxypropylcellulose) (HPC)
  T/C: 107 % of control

## C=COC(=O)CCCCCCCCCCCCCCCCC
dose: 20.0 mg/kg/injection, schedule: Q01DX009 (ip), vehicle: Klucel (hydroxypropylcellulose) (HPC)
  T/C: 94 % of control
dose: 40.0 mg/kg/injection, schedule: Q01DX009 (ip), vehicle: Klucel (hydroxypropylcellulose) (HPC)
  T/C: 94 % of control
dose: 80.0 mg/kg/injection, schedule: Q01DX009 (ip), vehicle: Klucel (hydroxypropylcellulose) (HPC)
  T/C: 92 % of control

## CCC[CH2][Sn]1([CH2]CCC)[O]OC(c2ccccc2)[O]1 (stereo not drawn)
dose: 0.19 mg/kg/injection, schedule: Q01DX009 (ip), vehicle: Klucel (hydroxypropylcellulose) (HPC)
  T/C: 98 % of control
dose: 0.38 mg/kg/injection, schedule: Q01DX009 (ip), vehicle: Klucel (hydroxypropylcellulose) (HPC)
  T/C: 87 % of control
dose: 0.75 mg/kg/injection, schedule: Q01DX009 (ip), vehicle: Klucel (hydroxypropylcellulose) (HPC)
  T/C: 107 % of control
dose: 1.5 mg/kg/injection, schedule: Q01DX009 (ip), vehicle: Klucel (hydroxypropylcellulose) (HPC)
  T/C: 102 % of control
dose: 3.0 mg/kg/injection, schedule: Q01DX009 (ip), vehicle: Klucel (hydroxypropylcellulose) (HPC)
  T/C: 101 % of control
dose: 3.0 mg/kg/injection, schedule: Q01DX009 (ip), vehicle: saline with Tween-80
  T/C: 102 % of control

## CC1CC(C)(C)N=C(CCC2CCCC23OCCO3)O1 (stereo not drawn)
dose: 50.0 mg/kg/injection, schedule: Q01DX009 (ip), vehicle: saline
  T/C: 108 % of control
dose: 100.0 mg/kg/injection, schedule: Q01DX009 (ip), vehicle: saline
  T/C: 111 % of control

## CCOc1ccc(N=Nc2ccc(N)cc2N)cc1
[1]
  T/C: 101 % of control
dose: 200.0 mg/kg/injection, schedule: Q01DX009 (ip), vehicle: Klucel (hydroxypropylcellulose) (HPC)
  T/C: 106 % of control
dose: 400.0 mg/kg/injection, schedule: Q01DX009 (ip), vehicle: Klucel (hydroxypropylcellulose) (HPC)
  T/C: 108 % of control

## Cc1c2oc3c(C)ccc(C(=O)NC4C(=O)NC(C(C)C)C(=O)N5CCCC5C(=O)N(C)CC(=O)N(C)C(C(C)C)C(=O)OC4C)c3nc-2c(C(=O)NC2C(=O)NC(C(C)C)C(=O)N3CCCC3C(=O)N(C)CC(=O)N(C)C(C(C)C)C(=O)OC2C)c(N)c1=O (stereo not drawn) (I: TVP[Sar][NMeV] / II: TVP[Sar][NMeV]; ester I:1-I:C, II:1-II:C; linker I:N-II:N via Actinocin(9to1); configuration not given here)
dose: 0.06 mg/kg/injection, schedule: Q01DX009 (ip), vehicle: saline
  T/C: 165 % of control
dose: 0.12 mg/kg/injection, schedule: Q01DX009 (ip), vehicle: saline
  T/C: 177 % of control and 180 % of control

## CS(=O)(=O)OCCCCCCCCCOS(C)(=O)=O
dose: 25.0 mg/kg/injection, schedule: Q01DX009 (ip), vehicle: Klucel (hydroxypropylcellulose) (HPC)
  T/C: 94 % of control
dose: 50.0 mg/kg/injection, schedule: Q01DX009 (ip), vehicle: Klucel (hydroxypropylcellulose) (HPC)
  T/C: 88 % of control
[1]
  T/C: 102 % of control

## Nc1nc(-c2ccccc2N=NN2CCCCC2)nc2ccccc12
dose: 50.0 mg/kg/injection, schedule: Q04DX003 (ip), vehicle: Klucel (hydroxypropylcellulose) (HPC)
  T/C: 97 % of control
dose: 100.0 mg/kg/injection, schedule: Q04DX003 (ip), vehicle: Klucel (hydroxypropylcellulose) (HPC)
  T/C: 91 % of control
dose: 200.0 mg/kg/injection, schedule: Q04DX003 (ip), vehicle: Klucel (hydroxypropylcellulose) (HPC)
  T/C: 113 % of control
